Results taken from ChEMBL document CHEMBL1201862, “PubChem BioAssay data set” (2004).
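Five compound concentrations were applied to cells in 96-well plates for 48 hours; endpoints were derived by simple linear interpolation of the resulting dose-response curve. GI50 is the concentration that inhibits growth by half.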 Activity calls are given as the source filed them. Cut-off read from the data, not from the text of the source: active = GI50 up to about 1.1 µM and inactive = higher.

Legend:
Assay in all cases: NCI anticancer screen, dose series, 48 h
TK-10 = test system: TK-10
MOLT-4 = test system: MOLT-4
OVCAR-5 = test system: OVCAR-5
SK-OV-3 = test system: SK-OV-3
SNB-19 = test system: SNB-19
HCT-116 = test system: HCT-116
OVCAR-8 = test system: OVCAR-8
UACC-62 = test system: UACC-62
HT-29 = test system: HT-29
SF-539 = test system: SF-539
CCRF-CEM = test system: CCRF-CEM
786-0 = test system: 786-0
K562 = test system: K562
LOX IMVI = test system: LOX IMVI
NCI-H460 = test system: NCI-H460
NCI-H226 = test system: NCI-H226
SF-268 = test system: SF-268
RXF 393 = test system: RXF 393

Measured: GI50

O=c1[nH]ccc2c1ccn2C1CC(O)C(CO)O1 (configuration not stated)
inactive: TK-10 > 100 µM | MOLT-4 > 100 µM | OVCAR-5 > 100 µM | SK-OV-3 > 100 µM | SNB-19 > 100 µM | HCT-116 > 100 µM | OVCAR-8 > 100 µM | UACC-62 > 100 µM | HT-29 > 100 µM | SF-539 > 100 µM | CCRF-CEM > 100 µM | 786-0 > 100 µM | K562 > 100 µM | LOX IMVI > 100 µM | NCI-H460 > 100 µM | NCI-H226 > 100 µM

COC(OC)c1cc2c(cc1C(=O)[C@@]13CCC[C@@H]1NC(=O)O3)OCO2
inactive: TK-10 > 100 µM | MOLT-4 > 100 µM | OVCAR-5 > 100 µM | SK-OV-3 > 100 µM | SNB-19 91.2 µM | HCT-116 > 100 µM | OVCAR-8 > 100 µM | UACC-62 34.1 µM | HT-29 > 100 µM | SF-539 > 100 µM | CCRF-CEM > 100 µM | 786-0 > 100 µM | K562 > 100 µM | NCI-H460 > 100 µM | SF-268 > 100 µM | NCI-H226 > 100 µM | RXF 393 52.2 µM

Cn1nc2ccccc2cc1=O
inactive: TK-10 > 100 µM | OVCAR-5 > 100 µM | SK-OV-3 > 100 µM | SNB-19 > 100 µM | HCT-116 > 100 µM | OVCAR-8 > 100 µM | UACC-62 > 100 µM | HT-29 > 100 µM | SF-539 > 100 µM | CCRF-CEM > 100 µM | 786-0 > 100 µM | K562 > 100 µM | LOX IMVI > 100 µM | NCI-H460 > 100 µM | SF-268 > 100 µM | NCI-H226 > 100 µM

c1ccc2[nH]c(CNc3ccc(C4C[Se]N=N4)cc3)nc2c1 (configuration not stated)
inactive: TK-10 > 100 µM | MOLT-4 9.02 µM | OVCAR-5 > 100 µM | SK-OV-3 > 100 µM | SNB-19 84.1 µM | HCT-116 41.2 µM | OVCAR-8 28.5 µM | UACC-62 24.7 µM | HT-29 > 100 µM | SF-539 > 100 µM | CCRF-CEM 25.7 µM | 786-0 > 100 µM | K562 27.9 µM | LOX IMVI 40.6 µM | NCI-H460 41.2 µM | SF-268 47.3 µM | RXF 393 > 100 µM

O=C(O)CC[C@H](NC(=O)c1ccc(-n2nc3ccc(=O)cc-3[nH]c2=O)cc1)C(=O)O
inactive: TK-10 > 100 µM | MOLT-4 > 100 µM | OVCAR-5 > 100 µM | SNB-19 > 100 µM | HCT-116 > 100 µM | OVCAR-8 > 100 µM | UACC-62 > 100 µM | HT-29 > 100 µM | SF-539 > 100 µM | CCRF-CEM > 100 µM | 786-0 > 100 µM | K562 > 100 µM | NCI-H460 > 100 µM | SF-268 > 100 µM | RXF 393 > 100 µM

CCOc1ccc(NC(=O)CC2Sc3ccccc3NC2=O)cc1 (configuration not stated)
inactive: TK-10 60.5 µM | MOLT-4 > 100 µM | OVCAR-5 > 100 µM | SK-OV-3 41.3 µM | SNB-19 54.1 µM | HCT-116 25.2 µM | OVCAR-8 21.1 µM | UACC-62 > 100 µM | HT-29 85.5 µM | SF-539 45.3 µM | CCRF-CEM > 100 µM | 786-0 19.2 µM | K562 65.2 µM | NCI-H460 90.2 µM | SF-268 53 µM | NCI-H226 > 100 µM

COc1ccc(N2C(=O)C3c4[nH]c5ccccc5c4C4CCC(C(C)(C)C)CC4C3C2=O)cc1OC (configuration not stated)
inactive: MOLT-4 15.6 µM | SK-OV-3 20.4 µM | SNB-19 26.2 µM | HCT-116 16.1 µM | OVCAR-8 18.2 µM | UACC-62 63.4 µM | HT-29 33.9 µM | SF-539 18.6 µM | CCRF-CEM 27.7 µM | 786-0 17.8 µM | K562 28.2 µM | SF-268 18.7 µM | NCI-H226 20 µM | RXF 393 14.8 µM

CCOC(=O)c1cc(/C=C/C(C)=C/C(=O)OC)oc1-c1ccccc1
inactive: TK-10 > 100 µM | MOLT-4 38.6 µM | OVCAR-5 > 100 µM | SK-OV-3 > 100 µM | SNB-19 38.5 µM | HCT-116 32.1 µM | OVCAR-8 92.7 µM | UACC-62 41.3 µM | HT-29 > 100 µM | SF-539 43.9 µM | CCRF-CEM 48.9 µM | 786-0 > 100 µM | K562 33.8 µM | LOX IMVI > 100 µM | NCI-H460 65.3 µM | SF-268 40.8 µM | NCI-H226 > 100 µM

N#CC1=C(c2ccccc2)NN(Cc2ccccc2)C(c2ccc(Cl)cc2)CC1=O (configuration not stated)
inactive: TK-10 42.8 µM | MOLT-4 4.91 µM | OVCAR-5 34 µM | SK-OV-3 > 10 µM | SNB-19 22.5 µM | HCT-116 18.7 µM | HT-29 17.3 µM | CCRF-CEM 7.89 µM | 786-0 24.3 µM | LOX IMVI 18 µM | NCI-H460 18 µM | SF-268 29.3 µM | NCI-H226 57.8 µM | RXF 393 22.3 µM
